Values quoted from earlier work, collected in PubChem BioAssay AID1259409 (Chemical Carcinogenesis Research Information System (CCRIS), 2018).

System: rodent chemically induced tumor inhibition, incidence and multiplicity
Assay: CCRIS tumor inhibitor studies

Q: With `NCCS` as the compound, how does the “tumour outcome (control, treated, inhibition, significance)” value (Carcinogen: N-METHYL-N'-NITRO-N-NITROSOGUANIDINE, 70-25-7, Dose [Inhibitor]: 0, 25 MG/KG IN 0.9% SALINE PLUS 2 MG/KG PROPANOLOL IN OLIVE OIL 1/2 D BEGINNING 1 WK POST LAST CARCINOGEN DOSE AND CONTI, Route [Inhibitor]: SUBCUTANEOUS, Species: RAT, Strain/Sex: WISTAR/MALE, Target Tissue: Type of Lesion: STOMACH: ADENOCARCINOMA, Dose [Carcinogen]: 100 UG/ML IN DRINKING WATER FOR 25 WK, Promoter: NONE USED) read?
A: Its value is 16/20 (80%), 2/22 (9%), 89%, p<0.001.

Q: And the “tumour outcome (control, treated, inhibition, significance)” value (Carcinogen: N-METHYL-N'-NITRO-N-NITROSOGUANIDINE, 70-25-7, Dose [Inhibitor]: 0, 25 MG/KG IN 0.9% SALINE PLUS 50 MG/KG CIMETIDINE IN OLIVE OIL 1/2 D BEGINNING 1 WK POST LAST CARCINOGEN DOSE AND CONT, Route [Inhibitor]: SUBCUTANEOUS, Species: RAT, Strain/Sex: WISTAR/MALE, Target Tissue: Type of Lesion: STOMACH: ADENOCARCINOMA, Dose [Carcinogen]: 100 UG/ML IN DRINKING WATER FOR 25 WK, Promoter: NONE USED)?
A: Its value is 16/20 (80%), 12/21 (57%), 29%, not significant.

Q: What about the “tumour outcome (control, treated, inhibition, significance)” value (Carcinogen: N-METHYL-N'-NITRO-N-NITROSOGUANIDINE, 70-25-7, Dose [Inhibitor]: 0, 25 MG/KG IN 1 ML/KG OLIVE OIL 1/2 D FOR STUDY DURATION BEGINNING POST CARCINOGEN TREATMENT (STUDY DURATION: 52 WK), Route [Inhibitor]: SUBCUTANEOUS, Species: RAT, Strain/Sex: WISTAR/MALE, Target Tissue: Type of Lesion: GLANDULAR STOMACH: ADENOCARCINOMA, Dose [Carcinogen]: 50 UG/ML DRINKING WATER FOR 25 WK) of the same compound?
A: Its value is 13/18 (72%), 6/20 (30%), 58%, p<0.05.

Q: And the “tumour outcome (control, treated, inhibition, significance)” value (Carcinogen: N-METHYL-N'-NITRO-N-NITROSOGUANIDINE, 70-25-7, Dose [Inhibitor]: 0, 50 MG/KG IN 0.9% SALINE 1/2 D BEGINNING POST CARCINOGEN DOSE AND CONTINUING FOR DURATION OF STUDY (STUDY DURATION: 52, Route [Inhibitor]: SUBCUTANEOUS, Species: RAT, Strain/Sex: WISTAR/MALE, Target Tissue: Type of Lesion: STOMACH: ADENOCARCINOMA, Dose [Carcinogen]: 50 UG/ML DRINKING WATER FOR 25 WK, Promoter: NONE USED)?
A: Its value is 12/19 (63%), 5/20 (25%), 58%, p<0.05.

Q: What about the “tumour outcome (control, treated, inhibition, significance)” value (Carcinogen: N-METHYL-N'-NITRO-N-NITROSOGUANIDINE, 70-25-7, Dose [Inhibitor]: 0, 280 MG/KG 1/2 D FOR STUDY DURATION (STUDY DURATION: 52 WK), Route [Inhibitor]: SUBCUTANEOUS, Species: RAT, Strain/Sex: WISTAR/MALE, Target Tissue: Type of Lesion: STOMACH: ADENOCARCINOMA, Dose [Carcinogen]: 50 UG/ML DRINKING WATER FOR 25 WK, Promoter: NONE USED) of the same compound?
A: The value was 75%, 18%, 76%, p<0.01.

Q: What about the “tumour outcome (control, treated, inhibition, significance)” value (Carcinogen: N-METHYL-N'-NITRO-N-NITROSOGUANIDINE, 70-25-7, Dose [Inhibitor]: 0.4% IN DIET FOR 26 WK GIVEN POST CARCINOGEN (STUDY DURATION: 52 WK), Route [Inhibitor]: ORAL, Species: RAT, Strain/Sex: WISTAR/MALE, Target Tissue: Type of Lesion: STOMACH: ADENOCARCINOMA, Dose [Carcinogen]: 50 UG/ML DRINKING WATER FOR 25 WK, Promoter: NONE USED) of the same compound?
A: Its value is 16/20 (80%), 9/20 (45%), 44%, p<0.05.

Q: And the “tumour outcome (control, treated, inhibition, significance)” value (Carcinogen: TRANS-5-AMINO-3-[2-(5-NITRO-2-FURYL)VINYL]-1,2,4-OXADIAZOLE;SQL8506, 28754-68-9, Carcinogen: TRANS-5-AMINO-3-[2-(5-NITRO-2-FURYL)VINYL]-1,2,4-OXADIAZOLE;SQL8506, 28754-68-9, Dose [Inhibitor]: 210 MG/KG 16 HR BEFORE THE 1ST CARCINOGEN DOSE FOLLOWED BY IP INJECTIONS (210 MG/KG) IMMEDIATELY BEFORE EACH DOSE OF CAR, Route [Inhibitor]: INTRAMUSCULAR/INTRAPERITONEAL, Species: MOUSE, Strain/Sex: CD-1/FEMALE, Target Tissue: Type of Lesion: HEMATOPOIETIC: MYELOID LEUKEMIA, Dose [Carcinogen]: 1 G/KG 2/D FOR 5 D EVERY 4 WK FOR 3 COURSES TREATMENT, Promoter: NONE USED)?
A: Its value is 7/137 (5%), 0/28 (0%), 100%, not calculated.

Q: What about the “tumour outcome (control, treated, inhibition, significance)” value (Carcinogen: TRANS-5-AMINO-3-[2-(5-NITRO-2-FURYL)VINYL]-1,2,4-OXADIAZOLE;SQL8506, 28754-68-9, Carcinogen: TRANS-5-AMINO-3-[2-(5-NITRO-2-FURYL)VINYL]-1,2,4-OXADIAZOLE;SQL8506, 28754-68-9, Dose [Inhibitor]: 210 MG/KG 16 HR BEFORE THE 1ST CARCINOGEN DOSE FOLLOWED BY IP INJECTIONS (210 MG/KG) IMMEDIATELY BEFORE EACH DOSE OF CAR, Route [Inhibitor]: INTRAMUSCULAR/INTRAPERITONEAL, Species: MOUSE, Strain/Sex: CD-1/FEMALE, Target Tissue: Type of Lesion: LYMPHOID TISSUE: NONTHYMIC LYMPHOMA, Dose [Carcinogen]: 1 G/KG 2/D FOR 5 D EVERY 4 WK FOR 3 COURSES OF TREATMENT, Promoter: NONE USED) of the same compound?
A: Its value is 8/137 (6%), 0/28 (0%), 100%, not calculated.

Q: What about the “tumour outcome (control, treated, inhibition, significance)” value (Carcinogen: TRANS-5-AMINO-3-[2-(5-NITRO-2-FURYL)VINYL]-1,2,4-OXADIAZOLE;SQL8506, 28754-68-9, Carcinogen: TRANS-5-AMINO-3-[2-(5-NITRO-2-FURYL)VINYL]-1,2,4-OXADIAZOLE;SQL8506, 28754-68-9, Dose [Inhibitor]: 210 MG/KG 16 HR BEFORE THE 1ST CARCINOGEN DOSE FOLLOWED BY IP INJECTIONS (210 MG/KG) IMMEDIATELY BEFORE EACH DOSE OF CAR, Route [Inhibitor]: INTRAMUSCULAR/INTRAPERITONEAL, Species: MOUSE, Strain/Sex: CD-1/FEMALE, Target Tissue: Type of Lesion: LYMPHOID TISSUE: THYMIC LYMPHOMA, Dose [Carcinogen]: 1 G/KG 2/D FOR 5 D EVERY 4 WK FOR 3 COURSES OF TREATMENT, Promoter: NONE USED) of the same compound?
A: Its value is 22/137 (16%), 1/28 (4%), 75%, not calculated.

Q: What about the “tumour outcome (control, treated, inhibition, significance)” value (Carcinogen: TRANS-5-AMINO-3-[2-(5-NITRO-2-FURYL)VINYL]-1,2,4-OXADIAZOLE;SQL8506, 28754-68-9, Carcinogen: TRANS-5-AMINO-3-[2-(5-NITRO-2-FURYL)VINYL]-1,2,4-OXADIAZOLE;SQL8506, 28754-68-9, Dose [Inhibitor]: 210 MG/KG 16 HR BEFORE THE 1ST CARCINOGEN DOSE FOLLOWED BY IP INJECTIONS (210 MG/KG) IMMEDIATELY BEFORE EACH DOSE OF CAR, Route [Inhibitor]: INTRAMUSCULAR/INTRAPERITONEAL, Species: MOUSE, Strain/Sex: CD-1/FEMALE, Target Tissue: Type of Lesion: STOMACH: SQUAMOUS CARCINOMA, Dose [Carcinogen]: 1 G/KG 2/D FOR 5 D EVERY 4 WK FOR 3 COURSES OF TREATMENT, Promoter: NONE USED) of the same compound?
A: Its value is 60/137 (44%), 13/28 (46%), -4%, not calculated.
